What all share (assay): ≥ marks a high value that may be exact or a test limit, other limits are often not marked, values filed in µg/mL are converted to µM
Assay [1] relates to Staphylococcus epidermidis ATCC 12228.
Assay [2] concerns Candida albicans ATCC 24433.
The subject of assay [3] is Escherichia coli ATCC 25922.
Assay [4] relates to Staphylococcus epidermidis CICC 23664.
Assay [5] concerns Staphylococcus aureus AS1.72.
For assay [6], the system named is Bacillus cereus AS1.126.
Assay [7] relates to Enterobacter cloacae CGMCC 1.58.
Assay [8] has as its system Klebsiella pneumoniae subsp. pneumoniae CGMCC 1.176.
Assay [9] relates to Proteus mirabilis CICC 22931.
Assay [10] deals with Enterococcus faecium CGMCC 1.2334.
Assay [11] concerns Enterococcus faecalis CGMCC 1.595.
Assay [12] relates to Escherichia coli AS1.349.
The subject of assay [13] is Pseudomonas aeruginosa CGMCC 1.860.
Assay [14] relates to Escherichia coli K12 MG1655.
The test system of assay [15] is Bacillus subtilis 168 HT.
For assay [16], the system named is Staphylococcus aureus USA 300 LAC.
The test system of assay [17] is Klebsiella pneumoniae ATCC 13883.
The subject of assay [18] is Proteus mirabilis.
The test system of assay [19] is Staphylococcus aureus ATCC 25923.
Assay [20] relates to Pseudomonas aeruginosa ATCC 27853.
Assay [21] deals with Bacillus subtilis ATCC 6633.
Assay [22] has as its system Micrococcus luteus ATCC 10240.
For assay [23], the system named is Stenotrophomonas maltophilia ATCC 13637.
Assay [24] relates to Streptococcus pyogenes.
In assay [25] the test system is Candida albicans ATCC 90112.
The test system of assay [26] is Staphylococcus epidermidis.
The test system of assay [27] is Candida albicans NCYC 1467.
Assay [28] concerns Escherichia coli NCTC 10418.
The test system of assay [29] is Staphylococcus aureus NCTC 10788.
The test system of assay [30] is Micrococcus luteus A270.
Assay [31] relates to Staphylococcus aureus ATCC 29213.
For assay [32], the system named is Candida albicans MDM8.
Assay [33] concerns Serratia marcescens ATCC 4112.
Assay [34] deals with Escherichia coli MG1655.
The test system of assay [35] is Pseudomonas aeruginosa PAO1.
Assay [36] concerns Staphylococcus aureus USA 300.

The results in this text go back to DBAASP.

In general, MIC refers to the smallest concentration in the dilution series that meets the test's criterion for growth inhibition.

In brackets after ≈: the same amount, converted by molar mass. A value given as a limit tells only on which side of the number the result lay.

With `CC[C@H](C)[C@H](NC(=O)CNC(=O)CNC(=O)[C@H](C)NC(=O)[C@@H](NC(=O)[C@H](CCCCN)NC(=O)[C@@H]1CCCN1C(=O)[C@@H](NC(=O)[C@H](CC(C)C)NC(=O)[C@H](CO)NC(=O)[C@H](CC(C)C)NC(=O)[C@@H](N)Cc1ccccc1)[C@@H](C)CC)[C@@H](C)CC)C(=O)N[C@@H](C)C(=O)N[C@@H](CO)C(=O)N[C@@H](CC(C)C)C(=O)N[C@H](C(=O)N[C@@H](CCCCN)C(=O)N[C@@H](CC(=O)O)C(=O)N[C@@H](CC(C)C)C(N)=O)C(C)C` [FLSLIPKIAGGIASLVKDL], the MIC is 100 µM (≈ 195 µg/mL) in assay [1], ≥ 100 µM in [2] and 100 µM (≈ 195 µg/mL) in [3].
For the molecule `CC[C@H](C)[C@H](NC(=O)CNC(=O)CNC(=O)[C@H](C)NC(=O)[C@@H](NC(=O)[C@H](CCCCN)NC(=O)[C@@H]1CCCN1C(=O)[C@@H](NC(=O)[C@H](CC(C)C)NC(=O)[C@H](CO)NC(=O)[C@H](CC(C)C)NC(=O)[C@@H](N)Cc1ccccc1)[C@@H](C)CC)[C@@H](C)CC)C(=O)N[C@@H](C)C(=O)N[C@@H](CO)C(=O)N[C@@H](CC(C)C)C(=O)N[C@H](C(=O)N[C@@H](CCCCN)C(=O)N[C@@H](CC(N)=O)C(=O)N[C@@H](CC(C)C)C(N)=O)C(C)C` [FLSLIPKIAGGIASLVKNL], the MIC was 6.25 µM (≈ 12.2 µg/mL) in assay [1], ≥ 50 µM in [2] and 25 µM (≈ 48.8 µg/mL) in [3].
In the case of `CC[C@H](C)[C@H](N)C(=O)N[C@@H](CCCCN)C(=O)N[C@@H](CCCCN)C(=O)N[C@H](C(=O)N[C@@H](Cc1c[nH]c2ccccc12)C(=O)N[C@@H](CO)C(=O)N[C@@H](CCCCN)C(=O)N[C@H](C(=O)N[C@@H](CCCCN)C(=O)N[C@@H](CCCCN)C(=O)N[C@@H](CC(C)C)C(=O)N[C@@H](Cc1c[nH]c2ccccc12)C(=O)N[C@@H](CCCCN)C(=O)O)[C@@H](C)CC)[C@@H](C)CC` [IKKIWSKIKKLWK], the MIC in assay [4] was 5 µM (≈ 8.5 µg/mL); in [5], 2.5 µM (≈ 4.25 µg/mL); in assay [6], 25 µM (≈ 42.5 µg/mL); in [7], ≥ 100 µM; in assay [8] it was ≥ 100 µM; in [9], ≥ 100 µM. In addition, the MIC in assay [10] came out at 10 µM (≈ 17 µg/mL); in assay [11] it was 2.5 µM (≈ 4.25 µg/mL); in assay [12] it was 3.13 µM (≈ 5.32 µg/mL); in [13], 5 µM (≈ 8.5 µg/mL).
Consider `CC[C@H](C)[C@H](N)C(=O)N[C@@H](CC(N)=O)C(=O)N[C@H](C(=O)N[C@H](C(=O)N[C@@H](CC(N)=O)C(=O)N[C@@H](C)C(=O)N1CCC[C@H]1C(=O)N[C@@H](CC(C)C)C(=O)N[C@@H](CCC(N)=O)C(=O)NCC(=O)N[C@@H](Cc1ccccc1)C(=O)N[C@@H](CCCCN)C(=O)N[C@H](C(=O)N[C@@H](C)C(=O)O)[C@@H](C)CC)[C@@H](C)CC)[C@@H](C)CC` [INIINAPLQGFKIA], for which the MIC in assay [14] came to 10.6 µM (≈ 16 µg/mL); in assay [15], 21.2 µM (≈ 32 µg/mL).
Take `CC[C@H](C)[C@H](NC(=O)[C@@H](N)CCCCN)C(=O)N[C@@H](Cc1c[nH]c2ccccc12)C(=O)N[C@@H](Cc1c[nH]c2ccccc12)C(=O)N[C@@H](Cc1c[nH]c2ccccc12)C(=O)N[C@@H](Cc1c[nH]c2ccccc12)C(=O)N[C@@H](CC(C)C)C(=O)N[C@@H](CCCN=C(N)N)C(N)=O` [KIWWWWLR]: the MIC in assay [16] stood at 3.1 µM (≈ 3.94 µg/mL); in [17], 12.5 µM (≈ 15.9 µg/mL); in [3], 8.8 µM (≈ 11.2 µg/mL).
Regarding `CC[C@H](C)[C@H](NC(=O)[C@H](CC(C)C)NC(=O)CNC(=O)[C@H](CCCCN)NC(=O)[C@H](CC(C)C)NC(=O)[C@H](CC(N)=O)NC(=O)[C@@H](N)CC(C)C)C(=O)N[C@@H](CCCCN)C(=O)N[C@@H](CCCCN)C(=O)N[C@H](C(=O)N[C@@H](C)C(=O)N[C@@H](CO)C(=O)N[C@@H](CC(C)C)C(=O)N[C@@H](CC(C)C)C(=O)N[C@@H](CC(N)=O)C(=O)O)C(C)C` [LNLKGLIKKVASLLN], the minimum inhibitory concentration (MIC) was ≥ 60 µM in assay [18]; 60 µM (≈ 97.4 µg/mL) in assay [19]; 30 µM (≈ 48.7 µg/mL) in assay [20]; 7.5 µM (≈ 12.2 µg/mL) in [21]; 15 µM (≈ 24.4 µg/mL) in assay [22]; 15 µM (≈ 24.4 µg/mL) in [23]. In addition, the MIC in assay [24] worked out at 15 µM (≈ 24.4 µg/mL); in [3] it was 30 µM (≈ 48.7 µg/mL); in assay [25], 7.5 µM (≈ 12.2 µg/mL); in [26], 30 µM (≈ 48.7 µg/mL).
Regarding `CC(C)C[C@H](NC(=O)[C@H](CCCN=C(N)N)NC(=O)[C@H](CC(N)=O)NC(=O)[C@H](CC(C)C)NC(=O)[C@H](CCCCN)NC(=O)[C@H](CCCCN)NC(=O)[C@H](CC(C)C)NC(=O)[C@@H](NC(=O)[C@@H](N)CC(N)=O)C(C)C)C(=O)N[C@@H](CCCCN)C(=O)N[C@@H](CCC(=O)O)C(=O)N[C@@H](CCCCN)C(=O)N[C@@H](CC(N)=O)C(=O)N[C@@H](CCCCN)C(=O)N[C@@H](C)C(=O)N[C@@H](CCCCN)C(=O)N[C@@H](CC(N)=O)C(=O)N[C@@H](CO)C(=O)N[C@@H](CCCCN)C(=O)N[C@@H](CCC(=O)O)C(=O)N[C@@H](CC(N)=O)C(=O)N[C@@H](CC(N)=O)C(=O)O` [NVLKKLNRLKEKNKAKNSKENN], the MIC was ≥ 98 µM in assay [27], > 196 µM in assay [20], ≥ 196 µM in assay [28] and ≥ 196 µM in [29].
For `CC(C)C[C@H](NC(=O)[C@H](CO)NC(=O)[C@H](Cc1ccccc1)NC(=O)[C@@H]1CCCN1C(=O)[C@@H](N)CCC(N)=O)C(=O)N[C@@H](CCC(=O)O)C(=O)N[C@@H](CCCN=C(N)N)C(=O)N[C@@H](Cc1c[nH]c2ccccc12)C(=O)O` [QPFSLERW], the MIC in assay [30] is ≥ 94.5 µM; in [1], 189 µM (≈ 201 µg/mL); in assay [31] it was 189 µM (≈ 201 µg/mL); in assay [32], ≥ 189 µM; in assay [33] it was ≥ 47.2 µM.
For the molecule `CC[C@H](C)[C@H](NC(=O)[C@H](CCCCN)NC(=O)[C@H](CCCCN)NC(=O)[C@H](CC(C)C)NC(=O)[C@H](Cc1cnc[nH]1)NC(=O)[C@H](CCCCN)NC(=O)[C@H](CCCCN)NC(=O)[C@H](CC(C)C)NC(=O)[C@@H](N)CCCN=C(N)N)C(=O)N[C@@H](CCCCN)C(=O)O` [RLKKHLKKIK], the MIC in [34] and in [15] was ≥ 99.1 µM each time.
With `CC[C@H](C)[C@H](NC(=O)[C@H](CCCN=C(N)N)NC(=O)[C@H](CCCN=C(N)N)NC(=O)[C@H](CCCN=C(N)N)NC(=O)[C@H](Cc1c[nH]c2ccccc12)NC(=O)[C@H](Cc1c[nH]c2ccccc12)NC(=O)[C@@H](N)Cc1c[nH]c2ccccc12)C(=O)N[C@@H](Cc1c[nH]c2ccccc12)C(N)=O` [WWWRRRIW], the MIC in [16] stood at 12.5 µM (≈ 16.8 µg/mL); in assay [35] it was 35.4 µM (≈ 47.5 µg/mL); in assay [17], 25 µM (≈ 33.6 µg/mL); in assay [36], 12.5 µM (≈ 16.8 µg/mL); in [3], 25 µM (≈ 33.6 µg/mL).
